Assay results taken from patent US4649191A, “Conformationally constrained alpha-melanotropin analogs with specific central nervous system activity” (Gibson-Stephens Neuropharmaceuticals, Inc., priority 1984, dated 1987).
Positions of bridges follow the written chain, without caps; N, C: chain ends. Non-standard residues stand in square brackets, D forms with d. Residues, ends and D or L forms follow the SMILES beside them.

Experiments:
Sprague-Dawley rats [1] = assay: Morphine antagonism, tail flick test; type: in vivo, rat; conditions: Reversal of morphine analgesia, 100 μg peptide given I.P. 30 min before 5 mg/kg morphine; 55° C. water bath, 15 s cut-off; water vehicle control 48.9
Procedure: (§1) Central nervous system activity is determined in an assay which measures the ability of peptides to reverse or inhibit the in vivo analgesia induced in rats by morphine compared to the ability of the peptide to cause skin darkening in frogs in vivo. For a discussion of these assays see generally, Beckwith, B. E. and Sandman, C. A., Peptides, 3, 411-420 (1982) and Zimmerman, E. and Krivoy, W. A., Prog. Brain Res.; 39, 383-394 (1973), which are specifically incorporated by reference herein.
(§2) In Vivo Bioassays. Morphine antagonism was tested in Sprague-Dawley rats (250-300 g) by administering the compounds of the present invention and measuring the latency to rear paw lick and jumping.
(§3) Each rat received either a water vehicle or an α-MSH analog intraperitoneally. Thirty minutes later 5 mg/kg of morphine was administered to all animals and 30 minutes after the administration of the morphine, the percent analgesia was measured. Each animal was placed on a 55° C. hot plate. A sixty second cut-off was used and animals not responding within this time was considered analgesic. The results of these tests are summarized in Table I. Percent analgesia was calculated as follows: [formula] Antagonism to morphine analgesia was also measured using the tail flick test. The tails of the treated animals were placed in a 55° C. water bath and the latency of the animals to withdraw was measured in seconds. A fifteen second cut-off time was used.
Percent analgesia in the tail flick test was calculated as follows: [formula]

Sprague-Dawley rats [2] = assay: Morphine antagonism, hot plate test; type: in vivo, rat; conditions: Reversal of morphine analgesia, 100 μg peptide given I.P. 30 min before 5 mg/kg morphine; 55° C. hot plate, 60 s cut-off; water vehicle control 56.1
Procedure: as §1, §2, §3

frog Rana pipiens = assay: Frog skin bioassay (skin darkening, peripheral activity); type: in vivo; conditions: injected into dorsal lymph sac of Rana pipiens, 30 minute observation
Procedure: as §1
The peripheral activity of the compounds was tested using the frog skin bioassay system. See O'Donohue, T. L. and Dorsa, D. M., Peptides, 3, 353-395 (1982) and Hadley, M.E. et. al., Science, 213, 1025-1027 (1981) which are herein specifically incorporated by reference. Peptides were injected into the dorsal lymph sac of the frog Rana pipiens in amounts up to 20 mg. […] The lowest dose of peptide that produced skin darkening within the 30 minute observation period was determined. For example, in Table I, only 0.1 ng/g of α-MSH was administered before skin darkening was observed. In contract, 30 μg/g of [drawing 23] was administered and no skin darkening was observed.

Compound	Percent Analgesia Tail Flick (Sprague-Dawley rats [1]) [%]	Percent Analgesia Hot Plate (Sprague-Dawley rats [2]) [%]	Minimum dose Producing Skin Darkening (frog Rana pipiens) [µg/g]
NCCCC[C@H]1NC(=O)[C@H](Cc2ccccc2)NC(=O)[C@H](Cc2c[nH]cn2)NC(=O)[C@H](CCC(=O)O)NC(=O)[C@@H](N)CSSC[C@H](C(=O)O)NC(=O)[C@H](Cc2ccccc2)NC1=O (H-CEHF[dK]F[dC]-OH; disulfide 1-7)	10.5	15.0	1
N=C(N)NCCC[C@H]1NC(=O)[C@H](Cc2ccccc2)NC(=O)[C@H](Cc2c[nH]cn2)NC(=O)[C@H](CCC(=O)O)NC(=O)[C@@H](N)CSSC[C@@H](C(=O)O)NC(=O)[C@H](Cc2c[nH]c3ccccc23)NC1=O	6.7		> 20
NCCCC[C@H]1NC(=O)[C@H](Cc2ccccc2)NC(=O)[C@H](Cc2c[nH]cn2)NC(=O)[C@H](CCC(=O)O)NC(=O)[C@@H](N)CSSC[C@@H](C(=O)O)NC(=O)[C@H](Cc2c[nH]c3ccccc23)NC1=O (H-CEHF[dK]WC-OH; disulfide 1-7)	1.5		> 30
N=C(N)NCCC[C@H]1NC(=O)[C@H](Cc2ccccc2)NC(=O)[C@H](Cc2c[nH]cn2)NC(=O)[C@H](CCC(=O)O)NC(=O)[C@@H](N)CSSC[C@H](C(=O)O)NC(=O)[C@H](Cc2ccccc2)NC1=O (H-CEHF[dR]F[dC]-OH; disulfide 1-7)	34.3	42.6	> 1
β-MSH [reference compound]	11.9	26.9	
NCCCC[C@H]1NC(=O)[C@H](Cc2ccccc2)NC(=O)[C@H](Cc2c[nH]cn2)NC(=O)[C@H](CCC(=O)O)NC(=O)[C@@H](N)CSSC[C@@H](C(=O)O)NC(=O)[C@H](Cc2ccccc2)NC1=O (H-CEHF[dK]FC-OH; disulfide 1-7)	14.9	15.5	> 1
